The target in series [1] is T1, hMAO-B (Homo sapiens, UniProt P27338).
T1 sequence (P27338 1-520): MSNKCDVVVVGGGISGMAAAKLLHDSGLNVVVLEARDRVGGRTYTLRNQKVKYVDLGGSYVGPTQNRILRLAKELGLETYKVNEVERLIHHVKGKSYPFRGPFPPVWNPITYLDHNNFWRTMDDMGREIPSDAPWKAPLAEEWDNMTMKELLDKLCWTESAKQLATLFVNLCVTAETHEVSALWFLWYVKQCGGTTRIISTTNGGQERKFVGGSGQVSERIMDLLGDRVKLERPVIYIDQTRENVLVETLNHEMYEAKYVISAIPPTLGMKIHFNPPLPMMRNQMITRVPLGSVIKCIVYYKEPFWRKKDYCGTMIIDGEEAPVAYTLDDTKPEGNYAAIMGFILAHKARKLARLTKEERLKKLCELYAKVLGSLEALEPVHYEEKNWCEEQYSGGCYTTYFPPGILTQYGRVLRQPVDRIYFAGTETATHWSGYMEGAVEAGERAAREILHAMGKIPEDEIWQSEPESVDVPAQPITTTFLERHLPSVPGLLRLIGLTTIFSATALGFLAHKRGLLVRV
Put plainly: hMAO-B inhibitory activity assay (recombinant enzyme, benzylamine substrate).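 As to all read-outs here: benzylamine used at 0.3 mM as hMAO-B substrate, compounds first screened at 10 µM, hMAO-A assayed with 0.06 mM kynuramine for the selectivity ratio.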 Particulars: for SI (selectivity index for hMAO-B as compared with hMAO-A): IC50 of hMAO-A/IC50 of hMAO-B; for remaining activity at 10 µM: read-out: Residual activity at 10 µM (%) hMAO-B.

The target in series [2] is T2, hMAO-A (Homo sapiens, UniProt P21397).
T2 construct: purchased Sigma-Aldrich (St. Louis, MO, USA)
T2 sequence (P21397 1-527): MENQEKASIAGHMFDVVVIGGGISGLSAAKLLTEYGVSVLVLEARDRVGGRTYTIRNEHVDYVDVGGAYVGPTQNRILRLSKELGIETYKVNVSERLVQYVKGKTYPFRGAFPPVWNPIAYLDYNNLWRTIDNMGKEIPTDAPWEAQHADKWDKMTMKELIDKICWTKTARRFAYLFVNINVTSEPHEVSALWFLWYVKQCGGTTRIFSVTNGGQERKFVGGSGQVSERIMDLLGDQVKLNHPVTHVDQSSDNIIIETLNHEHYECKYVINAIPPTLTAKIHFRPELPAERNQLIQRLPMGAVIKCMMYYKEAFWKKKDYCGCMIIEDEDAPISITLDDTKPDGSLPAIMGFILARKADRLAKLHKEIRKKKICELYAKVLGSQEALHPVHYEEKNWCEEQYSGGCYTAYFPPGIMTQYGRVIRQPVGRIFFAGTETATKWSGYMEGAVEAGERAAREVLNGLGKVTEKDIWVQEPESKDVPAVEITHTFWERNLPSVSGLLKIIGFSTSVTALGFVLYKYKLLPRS
In words: hMAO-A inhibitory activity assay (recombinant enzyme, kynuramine substrate). Type of series: biochemical. Particulars: kynuramine 0.06 mM; for remaining activity at 10 µM: 10 µM compound, read-out: Residual activity at 10 µM (%) hMAO-A.

Series [3] concerns the target T1, hMAO-B.
Series [4] addresses T1, hMAO-B. In words: Reversibility analysis of hMAO-B inhibition by dialysis. Type of series: biochemical. Set-up: purchased Sigma-Aldrich (St. Louis, MO, USA). Particulars: for Reversibility of hMAO-B inhibition: dialysis; for Relative activity of hMAO-B, undialyzed (AU) / Relative activity of hMAO-B, dialyzed (AD): preincubation 30 min at ~2 × IC50 (B10 0.134, B15 0.240, lazabemide 0.220, pargyline 0.280 μM); for Relative activity of hMAO-B, dialyzed (AD): after dialysis.

In series [5] the target is T1, hMAO-B. Put plainly: Enzyme kinetic study of hMAO-B inhibition (Lineweaver–Burk and secondary plots). Set-up: purchased Sigma-Aldrich (St. Louis, MO, USA). Type of series: biochemical. Particulars: for Type of hMAO-B inhibition: Lineweaver–Burk plots; for Ki: secondary plots, five substrate and three inhibitor concentrations.
A short description of series [6]: Parallel artificial membrane permeation assay (PAMPA) for BBB permeation. Type of series: in vitro ADME. Particulars: for Papp: pH 7.4, read-out: Experimental Pe.
Details of series [7]: method as in PMID 26587996. Particulars: cited from earlier work.

One may read the IC50 as the point on the concentration scale where inhibition reaches its midpoint. In general, Ki refers to the equilibrium dissociation constant of an inhibitor or competing ligand from its target. A high value points to weaker binding.

Like-named read-outs stand apart in the source and are kept apart here.

Take `O=C(/C=C/c1ccccc1OCc1ccccc1)c1ccc2c(c1)OCO2` [Compound B1]: in series [1], the IC50 was determined as 1440 ± 149 nM, the “SI (selectivity index for hMAO-B as compared with hMAO-A)” value is on record as 18.677 and the remaining activity at 10 µM came to 35.5 ± 6.05%. Further, in series [2], the remaining activity at 10 µM amounted to 82.6 ± 5.03% and the IC50 was 26.9 ± 4.16 µM.

For `O=C(/C=C/c1ccc(OCc2ccccc2)cc1)c1ccc2c(c1)OCO2` [Compound B2], in series [1], the IC50 came to 626 ± 296 nM and the remaining activity at 10 µM turned out to be 23.6 ± 0.96%. For the same molecule, the “SI (selectivity index for hMAO-B as compared with hMAO-A)” value in series [3] worked out at 21.933. Also, in series [2], the remaining activity at 10 µM was 53.1 ± 1.58% and the IC50 worked out at 13.7 ± 1.53 µM.

Turning to `O=C(/C=C/c1ccc(OCc2ccccc2)cc1)c1ccc2c(c1)OCCO2` [Compound B3], in series [1], the IC50 stood at 261 ± 16 nM, the “SI (selectivity index for hMAO-B as compared with hMAO-A)” value is 54.663 and the remaining activity at 10 µM came to 0%. In series [2], the remaining activity at 10 µM stood at 58.3 ± 0.84% and the IC50 came to 14.3 ± 0.203 µM.

As for `CS(=O)(=O)c1ccc(C(=O)/C=C/c2ccccc2OCc2ccccc2)cc1` [Compound B4], in series [1], the IC50 amounted to 233 ± 110 nM, the “SI (selectivity index for hMAO-B as compared with hMAO-A)” value is reported as 125.915 and the remaining activity at 10 µM came out at 16.2 ± 6.49%. In series [2], the remaining activity at 10 µM came to 78.2 ± 4.32% and the 50% inhibitory concentration (IC50) stood at 29.4 ± 2.71 µM.

On to `CS(=O)(=O)c1ccc(C(=O)/C=C/c2ccc(OCc3ccccc3)cc2)cc1` [Compound B5], for which, in series [1], the IC50 is 224 ± 82 nM, the “SI (selectivity index for hMAO-B as compared with hMAO-A)” value is on record as more than 178.651 and the remaining activity at 10 µM amounted to 0%. Also, in series [2], the remaining activity at 10 µM came out at 89.2 ± 4.47% and the IC50 was more than 40 µM.

Turning to `CSc1ccc(C(=O)/C=C/c2ccccc2OCc2ccccc2)cc1` [Compound B6], in series [1], the IC50 was 6550 ± 1340 nM, the “SI (selectivity index for hMAO-B as compared with hMAO-A)” value is given as more than 6.107 and the remaining activity at 10 µM came out at 41.3 ± 4.9%. For the same molecule, in series [2], the remaining activity at 10 µM came to 92 ± 2.93% and the IC50 was more than 40 µM.

Consider `CSc1ccc(C(=O)/C=C/c2ccc(OCc3ccccc3)cc2)cc1` [Compound B7], for which, in series [1], the IC50 was 149 ± 6 nM, the “SI (selectivity index for hMAO-B as compared with hMAO-A)” value was determined as 84.544 and the remaining activity at 10 µM is 0%. Further, in series [2], the remaining activity at 10 µM turned out to be 58.4 ± 4.48% and the IC50 was 12.6 ± 0.898 µM.

In the case of `O=C(/C=C/c1ccccc1OCc1ccccc1)c1ccc(Br)s1` [Compound B8], in series [1], the IC50 worked out at 17900 ± 268 nM, the “SI (selectivity index for hMAO-B as compared with hMAO-A)” value is reported as more than 2.237 and the remaining activity at 10 µM is 64.4 ± 1.5%. In series [2], the remaining activity at 10 µM is 92.45 ± 0.49% and the IC50 was more than 40 µM.

In the case of `O=C(/C=C/c1ccc(OCc2ccccc2)cc1)c1ccc(Br)s1` [Compound B9], in series [1], the IC50 is 236 ± 17 nM, the “SI (selectivity index for hMAO-B as compared with hMAO-A)” value came out at 101.551 and the remaining activity at 10 µM was 0%. Further, in series [2], the remaining activity at 10 µM came out at 69.1 ± 1.54% and the IC50 is 24 ± 1.44 µM.

As for `O=C(/C=C/c1ccc(OCc2ccccc2)cc1)c1cccs1` [Compound B10], in series [1], the IC50 was 67 ± 5 nM, the “SI (selectivity index for hMAO-B as compared with hMAO-A)” value came out at 504.791 and the remaining activity at 10 µM worked out at 0%. Also, in series [4], the “Reversibility of hMAO-B inhibition” value is recorded as “reversible inhibitors of hMAO-B”; the “Relative activity of hMAO-B, undialyzed (AU)” value is 44.29%; the “Relative activity of hMAO-B, dialyzed (AD)” value worked out at 77.53%. Further, in series [5], the “Type of hMAO-B inhibition” value was “competitive inhibitors of hMAO-B” and affinity was put at a Ki of 30 ± 1 nM. In addition, in series [2], the remaining activity at 10 µM was found to be 76.7 ± 3.22% and the IC50 is 33.8 ± 6.89 µM. Moreover, in series [6], the Pe value result was “higher than 4.0 × 10^–6 cm/s”, the “Prediction (CNS permeation)” value is recorded as “CNS + (Pe (10^−6 cm/s) > 4.00: CNS + (high permeation))” and the Papp was 4.93 ± 0.13 ×10⁻⁶ cm/s.

Regarding `O=C(/C=C/c1ccccc1OCc1ccccc1)c1cccs1` [Compound B11], in series [1], the IC50 turned out to be 5780 ± 2390 nM, the “SI (selectivity index for hMAO-B as compared with hMAO-A)” value is given as more than 6.915 and the remaining activity at 10 µM is 41.2 ± 0.12%. Further, in series [2], the remaining activity at 10 µM was determined as 81.3 ± 2.92% and the IC50 is more than 40 µM.

As to `O=C(/C=C/c1ccccc1OCc1ccccc1)c1ccc(C(F)(F)F)cc1` [Compound B12], in series [1], the IC50 came out at 37600 ± 1880 nM, the “SI (selectivity index for hMAO-B as compared with hMAO-A)” value was more than 1.065 and the remaining activity at 10 µM came out at 75.4 ± 3.6%. In series [2], the remaining activity at 10 µM amounted to 86.7 ± 2.68% and the IC50 is more than 40 µM.

As to `O=C(/C=C/c1ccc(OCc2ccccc2)cc1)c1ccc(C(F)(F)F)cc1` [Compound B13], in series [1], the IC50 worked out at 255 ± 16 nM, the “SI (selectivity index for hMAO-B as compared with hMAO-A)” value is given as more than 156.617 and the remaining activity at 10 µM was determined as 1.39 ± 3.27%. Moreover, in series [2], the remaining activity at 10 µM was 99.1 ± 1.24% and the IC50 was more than 40 µM.

In the case of `CCOc1ccc(C(=O)/C=C/c2ccccc2OCc2ccccc2)cc1` [Compound B14], in series [1], the IC50 worked out at 11300 ± 331 nM, the “SI (selectivity index for hMAO-B as compared with hMAO-A)” value is listed as more than 3.525 and the remaining activity at 10 µM was determined as 51.9 ± 1.31%. In series [2], the remaining activity at 10 µM amounted to 91.2 ± 6.2% and the IC50 is more than 40 µM.

In the case of `CCOc1ccc(C(=O)/C=C/c2ccc(OCc3ccccc3)cc2)cc1` [Compound B15], in series [1], the IC50 was found to be 120 ± 10 nM, the “SI (selectivity index for hMAO-B as compared with hMAO-A)” value is 287.600 and the remaining activity at 10 µM was found to be 0%. In addition, in series [4], the “Reversibility of hMAO-B inhibition” value is listed as “reversible inhibitors of hMAO-B”; the “Relative activity of hMAO-B, undialyzed (AU)” value is recorded as 41.68%; the “Relative activity of hMAO-B, dialyzed (AD)” value was 78.78%. In series [5], the “Type of hMAO-B inhibition” value is reported as “competitive inhibitors of hMAO-B” and the affinity, expressed as Ki, was 33 ± 1 nM. For the same molecule, in series [2], the remaining activity at 10 µM worked out at 75.9 ± 3.1% and the IC50 was found to be 34.5 ± 3.54 µM. Besides, in series [6], the Pe value result is “higher than 4.0 × 10^–6 cm/s”, the “Prediction (CNS permeation)” value was “CNS + (Pe (10^−6 cm/s) > 4.00: CNS + (high permeation))” and the Papp turned out to be 4.09 ± 0.24 ×10⁻⁶ cm/s.

For the molecule `C[C@H](NCc1ccc(OCc2cccc(F)c2)cc1)C(N)=O` [Safinamide], in series [7], the bioavailability result is listed as “about 95%”.

`C#CCN(C)[C@H](C)Cc1ccccc1` [Selegiline, reference compound]: in series [6], the “Prediction (CNS permeation)” value is “CNS + (Pe (10^−6 cm/s) > 4.00: CNS + (high permeation))”.

Source of the values: paper PMC9794710, “Introduction of benzyloxy pharmacophore into aryl/heteroaryl chalcone motifs as a new class of monoamine oxidase B inhibitors” (Scientific Reports, 2022).
